The target of one assay is Avi-tagged FL MALT-1 (Homo sapiens (Human), UniProt Q9UDY8). In words: MALT-1 Fluorogenic Peptide Cleavage Assay (MALT1 inhibition assay). The assay is classed as biochemical. Conditions: Ac-LRSR-AMC peptide substrate, 30 min pre-incubation, 90 min reaction at room temperature. As to the method:
Inhibition of MALT1 activity by the presence of small molecules was evaluated using MALT-1 Fluorogenic Peptide Cleavage Assay. The assay utilizes a quenched AMC-labelled peptide that contains the MALT-1 recognition sequence and cleavage site (LRSR). MALT-1 mediated cleavage of the peptide relieves the quenching and leads to an increase in fluorescence at excitation (342 nm) and emission (441 nm).
The following reagents were obtained commercially and used to prepare standard reagent formulations as further described below: N-2-hydroxyethylpiperazine-N-2-ethane sulfonic acid (HEPES) (1 M, pH 7.5, stored at 4° C.), sodium citrate (stored at RT), tris(2-carboxyethyl) phosphine hydrochloride (T-CEP) (500 mM, stored at −20° C.), ethylenediaminetetraacetic acid (EDTA) (500 mM, stored at RT), dimethylsulfoxide (DMSO, stored at RT), 3-[(3-cholamido-propyl)dimethylammonio]-1-propane sulphate (CHAPS) (stored at RT), dimethylsulfoxide (DMSO), DMSO (Fisher Scientific, stored at RT), Avi-tagged FL MALT-1 (Pharmaron, stored at −70° C.), Ac-LRSR-AMC Peptide (SM Biochemicals, stored at −20° C.)., and ultrapure water (MILLLI-Q©).
The standard reagent formulations used in this assay were prepared and stored as follows. A 1.1 M solution of sodium citrate (161.3 g, 500 mL) was prepared and stored at room temperature. A 10% (w/v) CHAPS solution (2.0 g, 20 mL) was prepared and stored at 4° C. A 500 mM HEPES solution having pH of 6.89 was prepared from 200 mL of a 1 M HEPES solution having a pH of 7.5 using concentrated hydrochloric acid and brought to a final volume of 400 mL with MILLI-Q© H2O. The substrate, 10 mM Ac-LRSR-AMC Peptide, was prepared (10 mg, 1.370 mL DMSO) and stored at −20° C.
Compounds were plated to provide a 2% DMSO final concentration using a ProxiPlate-384 Plus F Black 384-shallow well microplate. The assay-ready plates were equilibrated to room temperature. A reaction buffer (30 mL total volume) was prepared by combining HEPES (pH 6.89, 25 mM, 1.5 mL), sodium citrate (660 mM, 18.0 mL), T-CEP (1 mM, 0.06 mL), EDTA ([…], 0.06 mL), CHAPS (0.05%, 0.15 mL), DMSO (2%, 0.6 mL), and MILLI-Q© H2O (10.23 mL; 9.63 mL when backfilled to 2% DMSO) followed by thorough mixing. DMSO was added only when compound plates had not been DMSO-backfilled to 2%.
MALT-1 was thawed and kept on ice. Peptide substrate was thawed on the bench under ambient conditions. A MALT-1 enzyme working stock was prepared from Avi-tagged FL MALT-1 (40 nM in a prepared reagent volume of 16.5 μL) and the reaction buffer (13.0 mL). MALT1 working stock (5 μL) was added to each well of the microplate. MALT-1 was pre-incubated with compounds for 30 minutes at room temperature.
Two substrate working stocks (Km and 10×Km) were prepared. The 1×Km substrate was prepared from Ac-LRSR-AMC Peptide (50 μM in a prepared reagent volume of 35.0 μL) and the reaction buffer (6.965 mL). The 10×Km substrate was prepared from Ac-LRSR-AMC Peptide (280 μM in a prepared reagent volume of 196.0 μL) and the reaction buffer (6.804 mL). The reaction was initiated by the addition of substrate working stock (5 μL, 50 μM) to Km plates and the addition of substrate working stock (5 μL 280 μM) to 10×Km plates. The plates were covered and incubated on the bench at room temperature for 90 minutes.
Fluorescence intensity was determined using a CLARIOstar microplate reader (BMG LABTECH) using the optimised AMC mode. Before taking readings, a 70% gain was applied on the neutral control well. Compound data were normalised to % Inhibition and used to plot sigmoidal concentration response curves to yield various parameters including IC50.

The test system of assay [1] is NF-kB reporter in Jurkat cells. In words: NF-kB reporter assay in Jurkat cells stimulated with aCD3/aCD28/PMA. The assay is classed as cell-based. Conditions: Homo sapiens; Jurkat cells, 1 hr compound pre-incubation, aCD3/aCD28/PMA stimulation 4 hr, One-Glo readout; read-out: NF-kB Reporter Assay IC50. As to the method: Jurkat cells were maintained in complete RPMI 1640 media supplemented with 10% FBS. Prior to the assay, 120 nL of the serial diluted compound was added in each well of 384-well flat bottom white plate (Corning #3570) by using liquid handler Echo550. Jurkat cells were harvested by centrifugation at 120 g for 10 min and resuspended in fresh RPMI 1640 media without serum. […] (25,000 cells) were seeded in each well of 384-well plate containing compound. After 1 hr incubation at 37° C. in a 5% CO2 incubator, […] of diluted aCD3/aCD28/PMA (final concentration at […] and […], respectively) in RPMI 1640 without serum were added to each well. After incubation at 37° C. in 5% CO2 for 4 hr, […] of One-Glo reagent (Promega #E6120) was added into each well. The plate was left at room temperature for 5 min and the signal was measured on EnVision (PerkinElmer).
Compounds in which an IC50 was not measured are designated as “N/A”.
In general terms: In a reporter assay the amount or activity of a reporter protein is the signal.

Chain of Avi-tagged FL MALT-1 (Q9UDY8 whole entry): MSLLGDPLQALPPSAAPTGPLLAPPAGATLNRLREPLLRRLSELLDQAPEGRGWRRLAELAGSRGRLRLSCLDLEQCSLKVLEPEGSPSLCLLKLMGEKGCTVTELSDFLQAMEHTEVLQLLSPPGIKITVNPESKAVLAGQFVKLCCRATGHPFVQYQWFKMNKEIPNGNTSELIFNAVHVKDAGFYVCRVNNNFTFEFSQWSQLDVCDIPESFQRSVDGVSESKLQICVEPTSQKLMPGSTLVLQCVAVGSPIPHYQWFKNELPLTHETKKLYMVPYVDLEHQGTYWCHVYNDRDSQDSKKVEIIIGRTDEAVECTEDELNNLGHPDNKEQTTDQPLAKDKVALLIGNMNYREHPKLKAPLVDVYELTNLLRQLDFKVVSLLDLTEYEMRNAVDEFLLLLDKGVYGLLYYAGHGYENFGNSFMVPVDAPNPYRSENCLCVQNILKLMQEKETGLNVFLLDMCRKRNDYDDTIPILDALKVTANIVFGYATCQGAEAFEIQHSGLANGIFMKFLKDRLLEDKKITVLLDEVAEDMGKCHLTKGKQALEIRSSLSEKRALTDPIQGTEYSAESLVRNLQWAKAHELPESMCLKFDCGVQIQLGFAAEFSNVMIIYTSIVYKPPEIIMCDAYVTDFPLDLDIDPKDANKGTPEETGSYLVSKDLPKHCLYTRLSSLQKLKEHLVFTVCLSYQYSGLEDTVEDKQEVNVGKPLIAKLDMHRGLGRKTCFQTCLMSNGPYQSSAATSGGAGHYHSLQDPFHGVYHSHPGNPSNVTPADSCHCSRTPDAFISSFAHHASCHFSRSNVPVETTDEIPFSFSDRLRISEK

As to `Cn1ncc2cccc(NS(=O)(=O)c3cnn(-c4cc(N5CCOCC5)ccn4)c3)c21` [Compound I-103, N-(1-methyl-1H-indazol-7-yl)-1-(4-morpholinopyridin-2-yl)-1H-pyrazole-4-sulfonamide], the figures for the IC50 (against Avi-tagged FL MALT-1; in assay [1]) were greater than 2500 nM and less than 400 nM, respectively.

For the molecule `CN1C[C@@H](n2cc(S(=O)(=O)Nc3cccc4cnn(C)c34)cn2)CCC1=O` [Compound I-351], the IC50 (on Avi-tagged FL MALT-1; in assay [1]) was greater than 2500 nM throughout.

With `Cn1ncc2cccc(NS(=O)(=O)c3cnn(-c4cc(C(F)(F)F)ccn4)c3)c21` [Compound I-15, N-(1-Methyl-1H-Indazol-7-yl)-1-(4-(Trifluoromethyl)Pyridin-2-yl)-1H-Pyrazole-4-Sulfonamide], the IC50 on Avi-tagged FL MALT-1 was 400 to 1000 nM; in assay [1], less than 400 nM.

As to `COCC(C)(C)c1ccnc(-n2cc(S(=O)(=O)Nc3cccc4cnn(C)c34)cn2)c1` [Compound I-481, 1-(4-(1-methoxy-2-methylpropan-2-yl)pyridin-2-yl)-N-(1-methyl-1H-indazol-7-yl)-1H-pyrazole-4-sulfonamide], the half-inhibitory concentration (IC50) is greater than 2500 nM against Avi-tagged FL MALT-1 and less than 400 nM in assay [1].

Turning to `C[C@@H]1COC(=O)N1c1ccnc(-n2cc(S(=O)(=O)Nc3cccc4cnn(C)c34)cn2)c1` [Compound I-302], the values for the IC50 (on Avi-tagged FL MALT-1; in assay [1]) were greater than 2500 nM and less than 400 nM, respectively.

Regarding `Cn1ncc2cccc(NS(=O)(=O)c3cnn(-c4cc([C@@]5(F)CCOC5)ccn4)c3)c21` [Compound I-334], the values for the IC50 (on Avi-tagged FL MALT-1; in assay [1]) were greater than 2500 nM and less than 400 nM, respectively.

On to `Cn1ncc2cccc(NS(=O)(=O)c3cnn(-c4cc(C5(O)CC(F)C5)ccn4)c3)c21` (stereo not shown) [Compound I-358], for which the IC50 on Avi-tagged FL MALT-1 is greater than 2500 nM; in assay [1], less than 400 nM.

As to `Cn1ncc2cccc(NS(=O)(=O)c3cnn(-c4cc(N5CC[C@H](F)C5)ccn4)c3)c21` [Compound I-429, 1-{4-[(3S)-3-fluoropyrrolidin-1-yl]pyridin-2-yl}-N-(1-methylindazol-7-yl) pyrazole-4-sulfonamide], the half-inhibitory concentration (IC50) on Avi-tagged FL MALT-1 is greater than 2500 nM; in assay [1] it was less than 400 nM.

`CCc1ccc2cnn(C)c2c1NS(=O)(=O)c1cnn(-c2ccnc(N(C)C)c2)c1` [Compound I-41, 1-(2-(Dimethylamino)Pyridin-4-yl)-N-(6-ethyl-1-Methyl-1H-Indazol-7-yl)-1H-Pyrazole-4-Sulfonamide]: the values for the IC50 (against Avi-tagged FL MALT-1; in assay [1]) were no more than 400 nM and less than 400 nM, respectively.

Take `CCc1ccc2cn(C)nc2c1NS(=O)(=O)c1cnn(-c2ccnc(C(F)(F)F)c2)c1` [Compound I-48, N-(6-Ethyl-2-Methyl-2H-Indazol-7-yl)-1-(2-(Trifluoromethyl) Pyridin-4-yl)-1H-Pyrazole-4-Sulfonamide]: the 50% inhibitory concentration (IC50) against Avi-tagged FL MALT-1 was no more than 400 nM; in assay [1], greater than 2500 nM.

Take `COC1(c2ccnc(-n3cc(S(=O)(=O)Nc4cccc5cnn(C)c45)cn3)c2)CN(C(C)=O)C1` [Compound I-254]: the figures for the IC50 (against Avi-tagged FL MALT-1; in assay [1]) were greater than 2500 nM and 1000 to 2500 nM, respectively.

For the molecule `Cn1cc2ccc(Cl)c(NS(=O)(=O)c3cnn(-c4ccnc(C(F)(F)F)c4)c3)c2n1` [Compound I-47, N-(6-Chloro-2-Methyl-2H-Indazol-7-yl)-1-(2-(Trifluoromethyl) Pyridin-4-yl)-1H-Pyrazole-4-Sulfonamide], the concentration for half-maximal inhibition (IC50) (at Avi-tagged FL MALT-1; in assay [1]) was greater than 2500 nM each time.

With `CC(C)Oc1ccc2cnn(C)c2c1NS(=O)(=O)c1cnn(-c2ccnc(C(F)(F)F)c2)c1` [Compound I-10, N-(6-Isopropoxy-1-Methyl-1H-Indazol-7-yl)-1-(2-(Trifluoromethyl)Pyridin-4-yl)-1H-Pyrazole-4-Sulfonamide], the IC50 is no more than 400 nM against Avi-tagged FL MALT-1 and 400 to 1000 nM in assay [1].

For the molecule `C[C@H](O)c1ccnc(-n2cc(S(=O)(=O)Nc3cccc4cnn(C)c34)cn2)c1` [Compound I-270], the IC50 at Avi-tagged FL MALT-1 is greater than 2500 nM; in assay [1], less than 400 nM.

Consider `COc1cc(NS(=O)(=O)c2cnn(-c3ccnc(C(F)(F)F)c3)c2)c2c(cnn2C)c1` [Compound I-58, N-(5-Methoxy-1-Methyl-1H-Indazol-7-yl)-1-(2-(Trifluoromethyl)Pyridin-4-yl)-1H-Pyrazole-4-Sulfonamide], for which the IC50 (at Avi-tagged FL MALT-1; in assay [1]) was greater than 2500 nM in each case.

For the molecule `COc1ccc2cnn(C)c2c1NS(=O)(=O)c1cnn(-c2cc(C(C)(C)OC)ccn2)c1` [Compound I-258, N-(6-methoxy-1-methyl-1H-indazol-7-yl)-1-(4-(2-methoxypropan-2-yl)pyridin-2-yl)-1H-pyrazole-4-sulfonamide], the half-inhibitory concentration (IC50) against Avi-tagged FL MALT-1 is no more than 400 nM; in assay [1], less than 400 nM.

As to `COc1ccc2cnn(C)c2c1NS(=O)(=O)c1cnn(-c2cc(N3CCC(C)CC3)ccn2)c1` [Compound I-418], the figures for the IC50 (against Avi-tagged FL MALT-1; in assay [1]) were greater than 2500 nM and less than 400 nM, respectively.

Consider `Cn1ncc2cccc(NS(=O)(=O)c3cnn(-c4cc(N5CC(C)(C)OC5=O)ccn4)c3)c21` [Compound I-283], for which the half-maximal inhibitory concentration (IC50) at Avi-tagged FL MALT-1 was greater than 2500 nM; in assay [1], less than 400 nM.

As for `COC1(c2ccnc(-n3cc(S(=O)(=O)Nc4cccc5cnn(C)c45)cn3)c2)CN(C)C1` [Compound I-252], the half-inhibitory concentration (IC50) against Avi-tagged FL MALT-1 is greater than 2500 nM; in assay [1], less than 400 nM.

For the molecule `CCc1ccc2[nH]nc(C)c2c1N(C)S(=O)(=O)c1cnn(-c2cc(C)ccn2)c1` [Compound I-78, N-(5-Ethyl-3-Methyl-1H-Indazol-4-yl)-N-Methyl-1-(4-Methylpyridin-2-yl)Pyrazole-4-Sulfonamide], the figures for the IC50 (on Avi-tagged FL MALT-1; in assay [1]) were no more than 400 nM and 400 to 1000 nM, respectively.

For the molecule `COC1(c2ccnc(-n3cc(S(=O)(=O)Nc4cccc5cnn(C)c45)cn3)c2)CCC1` [Compound I-93, 1-(4-(1-Methoxycyclobutyl)Pyridin-2-yl)-N-(1-Methyl-1H-Indazol-7-yl)-1H-Pyrazole-4-Sulfonamide], the IC50 against Avi-tagged FL MALT-1 is greater than 2500 nM; in assay [1] it was less than 400 nM.

Consider `COC1(c2ccnc(-n3cc(S(=O)(=O)Nc4cccc5cnn(C)c45)cn3)c2)CC(C)(C)C1` [Compound I-478, 1-(4-(1-methoxy-3,3-dimethylcyclobutyl)pyridin-2-yl)-N-(1-methyl-1H-indazol-7-yl)-1H-pyrazole-4-sulfonamide], for which the values for the 50% inhibitory concentration (IC50) (against Avi-tagged FL MALT-1; in assay [1]) were greater than 2500 nM and less than 400 nM, respectively.

In the case of `Cn1ncc2cccc(NS(=O)(=O)c3cnn(-c4cc(C5(O)CCOC5)ccn4)c3)c21` (stereo in doubt) [Compound I-310, (S)-1-(4-(3-hydroxytetrahydrofuran-3-yl)pyridin-2-yl)-N-(1-methyl-1H-indazol-7-yl)-1H-pyrazole-4-sulfonamide], the half-inhibitory concentration (IC50) was greater than 2500 nM at Avi-tagged FL MALT-1 and less than 400 nM in assay [1].

The term IC50 denotes the midpoint of a concentration-inhibition curve.

The values are drawn from patent US20240150321A1, “PYRAZOLYLSULFONAMIDE COMPOUNDS AND THEIR USE IN THERAPY” (HOTSPOT THERAPEUTICS, INC., priority 2022, published 2024).
